Experimental data reported in US20250282785A1, “PYRROLIDINONE DERIVATIVES AS INHIBITORS OF NF KAPPA B INDUCING KINASE” (priority 2022, published 2025).

Legend:
[1] = target: Recombinant Human NF-Kappab-Inducing Kinase (NIK/MAP3K14) (Homo sapiens, UniProt Q99558); experiment: Inhibition of auto-phosphorylation of recombinant human NIK/MAP3K14 (AlphaScreen); format: biochemical; conditions: NIK/MAP3K14 auto-phosphorylation, 5 microM ATP, 1 nM enzyme, 2 h at 25° C.; average of values; read-out: Assay 1 IC50
Recombinant Human NF-Kappab-Inducing Kinase (NIK/MAP3K14), sequence (Q99558 whole entry): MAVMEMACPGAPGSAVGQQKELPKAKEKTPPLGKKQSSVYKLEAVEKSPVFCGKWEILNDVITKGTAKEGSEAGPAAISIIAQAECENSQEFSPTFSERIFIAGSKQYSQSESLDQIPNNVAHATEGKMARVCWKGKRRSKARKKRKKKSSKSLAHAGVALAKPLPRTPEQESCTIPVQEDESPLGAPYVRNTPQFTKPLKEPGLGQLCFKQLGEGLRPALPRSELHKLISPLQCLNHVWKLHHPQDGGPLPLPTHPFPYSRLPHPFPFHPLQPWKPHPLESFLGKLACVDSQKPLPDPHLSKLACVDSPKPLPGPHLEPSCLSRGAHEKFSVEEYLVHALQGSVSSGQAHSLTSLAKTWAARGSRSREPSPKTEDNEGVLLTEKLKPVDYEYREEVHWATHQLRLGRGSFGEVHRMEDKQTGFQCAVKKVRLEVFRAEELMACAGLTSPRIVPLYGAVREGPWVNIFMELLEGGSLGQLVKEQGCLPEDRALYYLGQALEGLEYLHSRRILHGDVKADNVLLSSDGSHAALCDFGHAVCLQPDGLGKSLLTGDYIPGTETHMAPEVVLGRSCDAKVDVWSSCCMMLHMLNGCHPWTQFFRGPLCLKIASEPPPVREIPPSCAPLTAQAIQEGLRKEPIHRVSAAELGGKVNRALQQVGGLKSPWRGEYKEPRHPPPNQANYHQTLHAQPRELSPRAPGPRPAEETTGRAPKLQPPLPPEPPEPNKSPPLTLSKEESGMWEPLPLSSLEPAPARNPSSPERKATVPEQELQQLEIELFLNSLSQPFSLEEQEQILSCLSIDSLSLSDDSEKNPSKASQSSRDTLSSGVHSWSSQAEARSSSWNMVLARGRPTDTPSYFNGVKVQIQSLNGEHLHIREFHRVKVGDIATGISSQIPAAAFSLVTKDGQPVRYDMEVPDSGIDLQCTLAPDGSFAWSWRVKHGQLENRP
Method: Biological Assay 1: Inhibition of Auto-Phosphorylation of Recombinant Human NF-Kappab-Inducing Kinase (NIK/MAP3K14) Activity (AlphaScreen®)
NIK/MAP3K14 auto-phosphorylation activity was measured using the AlphaScreen® ((αscreen) format (Perkin ElmeR). All compounds tested were dissolved in dimethyl sulfoxide (DMSO) and further dilutions were made in assay buffer. Final DMSO concentration was 0.7% (v/v) in assays. Assay buffer was 50 mM Tris pH 7.5 containing 1 mM EGTA (ethylene glycol tetraacetic acid), 1 mM DTT (dithiothreitol), 0.1 mM Na3VO4, 5 mM MgCl2, 0.01% Tween® 20. Assays were carried out in 384 well Proxiplates (Perkin ElmeR). Incubations consisted of compound, 5 microM Adenosine-5′-triphosphate (ATP), and 1 nM NIK/MAP3K14. Incubations were initiated by addition of GST-tagged NIK/MAP3K14 enzyme, carried out for 2 h at 25° C. and terminated by addition of stop buffer containing anti-phospho-IKK Ser176/180 antibody. Protein A Acceptor and Glutathione-donor beads were added before reading using an EnVision® Multilabel Plate Reader (Perkin ElmeR). Signal obtained in the wells was normalized using high (full enzyme activity, 0.7% DMSO) and low controls (no enzyme activity, 0.7% DMSO, no ATP). IC50's were determined by fitting a sigmoidal curve to % inhibition of control versus Log10 compound concentration.

[2] = tested on: p-IKKα levels in L363 (NIK translocated multiple myeloma) cells; experiment: Effect of compounds on p-IKKα levels in L363 cells (AlphaLISA SureFire Ultra); format: cell-based; conditions: Homo sapiens, L-363; L363 cells, BAFF stimulated, MG132, 6 h; average of values; read-out: Assay 2 IC50
Method: Biological Assay 2: Effect of Compounds on p-IKKα Levels in L363 (NIK Translocated Multiple Myeloma) Cells
All compounds tested were dissolved and serially diluted in DMSO, 1:3 dilution for 11 points in an Echo compatible plate. 100% DMSO is added to columns 12 and 24 of the plate to serve as high and low signal controls. This compound plate was used to spot 20 nl of compound or DMSO into a Greiner 384 well TC plate (781080). Final DMSO concentration was […] (v/v) in cell assays. Human L363 cells (ATCC) were cultured in RPMI 1640 medium supplemented with GlutaMax, non-essential amino acids, sodium pyruvate and 10% fetal bovine serum. Cells were routinely maintained at densities of 0.2×10^6 cells per ml −2×10^6 cells per ml at 37° C. in a humidified 5% CO2 atmosphere incubator. Cells were passaged twice a week splitting back to obtain the low density. The day before the assay, cells were washed twice in HBSS, resuspended in DMEM+0.5% IgG and protease free BSA (Jackson Immuno Research Laboratories), +/−250 ng/ml recombinant human B-cell activating factor (BAFF/BLyS/TNFSF13B) and incubated overnight at 37° C. in a humidified 5% CO2 atmosphere (bulk stimulation with or without BAFF). The next day, cell concentration was adjusted to 1×10^7 cells/ml in DMEM+/−250 ng/ml BAFF+/−10 uM MG132 and plated at 10 ul/well into compound or DMSO spotted 384 well TC plates. Seeded cells were incubated at 37° C. in a humidified 5% CO2 atmosphere for 6 h. After 6 h, plates were removed from the incubator and cell lysis was achieved by the addition of 2.5 μl 5× lysis buffer containing protease and phosphatase inhibitors, followed by shaking on a plate shaker at room temperature for 15 min. At the end of this incubation, lysed cells were sequentially treated and incubated with acceptor and donor bead mixes according to the manufacturer's protocol for a 1 plate/2-incubation suspension cell assay (AlphaLISA SureFire Ultra p-IKKα (Ser 176/180) Assay Kit (Perkin ElmeR). Plates were read using an EnVision® Multilabel Plate Reader (Perkin ElmeR). Within an experiment, a concentration response curve for each compound was run in duplicate. Signal obtained in the test wells was normalized using high signal (BAFF stimulated cells, DMSO, MG132) and low signal (unstimulated cells, DMSO) controls. To determine the IC50, a sigmoidal curve was fitted to the plot of % inhibition versus Log10 compound concentration.

SMILES | IC50 [1] [nM] | IC50 [2] [nM]
CN1CC[C@@](O)(c2cc(-c3cccc(-c4cccc(C(N)=O)n4)c3)n(C)n2)C1=O (single isomer, unassigned) [Example 30] | > 501 | > 501
CN1CC[C@@](O)(c2cc(-c3cccc(-c4ccn5cncc5c4)c3)no2)C1=O [Example 67, (R)-3-Hydroxy-3-(3-(3-(imidazo[1,5-a]pyridin-7-yl)phenyl)isoxazol-5-yl)-1-methylpyrrolidin-2-one] | 100 to 500 | > 501
CNc1ccc(-c2cccc(-c3cc([C@]4(O)CCN(C)C4=O)on3)c2)nc1C(N)=O [Example 104, (R)-6-(3-(5-(3-Hydroxy-1-methyl-2-oxopyrrolidin-3-yl)isoxazol-3-yl)phenyl)-3-(methylamino)picolinamide] | < 100 | < 100
COc1ncccc1Nc1sc(-c2cccc(-c3cc([C@]4(O)CCN(C)C4=O)on3)c2)nc1C(N)=O [Example 213, (R)-2-(3-(5-(3-Hydroxy-1-methyl-2-oxopyrrolidin-3-yl)isoxazol-3-yl)phenyl)-5-((2-methoxypyridin-3-yl)amino)thiazole-4-carboxamide] | < 100 | < 100
CN1CC[C@@](O)(c2cc(-c3cccc(-c4nc(C(N)=O)c5n4CCN(Cc4ccccc4)C5)c3)no2)C1=O [Example 234, (R)-7-Benzyl-3-(3-(5-(3-hydroxy-1-methyl-2-oxopyrrolidin-3-yl)isoxazol-3-yl)phenyl)-5,6,7,8-tetrahydroimidazo[1,5-a]pyrazine-1-carboxamide] | > 501 | > 501
COc1cc(-c2cc(-c3cc([C@]4(O)CCN(C)C4=O)on3)c(F)cc2F)nc2c(N)ncnc12 [Example 113, (R)-3-(3-(5-(4-Amino-8-methoxypyrido[3,2-d]pyrimidin-6-yl)-2,4-difluorophenyl)isoxazol-5-yl)-3-hydroxy-1-methylpyrrolidin-2-one] | < 100 | > 501
CN1CC[C@@](O)(c2cc(-c3cccc(-c4cc(C(F)(F)F)c5cn[nH]c5n4)c3)no2)C1=O [Example 225, (R)-3-Hydroxy-1-methyl-3-(3-(3-(4-(trifluoromethyl)-1H-pyrazolo[3,4-b]pyridin-6-yl)phenyl)isoxazol-5-yl)pyrrolidin-2-one] | 100 to 500 | > 501
CN1CC[C@@](O)(c2cc(-c3cccc(-c4ccnc(N)c4)c3)no2)C1=O [Example 53, (R)-3-(3-(3-(2-Aminopyridin-4-yl)phenyl)isoxazol-5-yl)-3-hydroxy-1-methylpyrrolidin-2-one] | 100 to 500 | > 501
CN1CC[C@@](O)(c2cc(-c3cccc(-c4cnc(N)c(C(N)=O)n4)c3)no2)C1=O [Example 110, (R)-3-Amino-6-(3-(5-(3-hydroxy-1-methyl-2-oxopyrrolidin-3-yl)isoxazol-3-yl)phenyl)pyrazine-2-carboxamide] | < 100 | < 100
COCCn1cc(-c2cc(C(N)=O)nc(-c3cccc(-c4cc([C@]5(O)CCN(C)C5=O)on4)c3)c2)cn1 [Example 189, (R)-6-(3-(5-(3-Hydroxy-1-methyl-2-oxopyrrolidin-3-yl)isoxazol-3-yl)phenyl)-4-(1-(2-methoxyethyl)-1H-pyrazol-4-yl)picolinamide] | < 100 | 100 to 500
Cc1cn(C)nc1Nc1sc(-c2cccc(-c3cc([C@]4(O)CCN(C)C4=O)on3)c2)nc1C(N)=O [Example 239, (R)-5-((1,4-Dimethyl-1H-pyrazol-3-yl)amino)-2-(3-(5-(3-hydroxy-1-methyl-2-oxopyrrolidin-3-yl)isoxazol-3-yl)phenyl)thiazole-4-carboxamide] | < 100 | < 100
CCn1ncc2cc(-c3cccc(-c4cc([C@]5(O)CCN(C)C5=O)on4)c3)cnc21 [Example 55, (R)-3-(3-(3-(1-Ethyl-1H-pyrazolo[3,4-b]pyridin-5-yl)phenyl)isoxazol-5-yl)-3-hydroxy-1-methylpyrrolidin-2-one] | > 501 | > 501
CN1CC[C@@](O)(c2cc(-c3cccc(-c4nc5c(c(C(N)=O)n4)CCCC5)c3)no2)C1=O [Example 125, (R)-2-(3-(5-(3-Hydroxy-1-methyl-2-oxopyrrolidin-3-yl)isoxazol-3-yl)phenyl)-5,6,7,8-tetrahydroquinazoline-4-carboxamide] | < 100 | > 501
CN1CC[C@@](O)(c2cc(-c3cccc(-c4ccc5nccn5c4)c3)no2)C1=O [Example 71, (R)-3-Hydroxy-3-(3-(3-(imidazo[1,2-a]pyridin-6-yl)phenyl)isoxazol-5-yl)-1-methylpyrrolidin-2-one] | > 501 | > 501
COc1cc(-c2cc([C@]3(O)CCN(C)C3=O)on2)cc(-c2cccc(C(N)=O)n2)c1 [Example 153, (R)-6-(3-(5-(3-Hydroxy-1-methyl-2-oxopyrrolidin-3-yl)isoxazol-3-yl)-5-methoxyphenyl)picolinamide] | < 100 | > 501
Cc1ccc(-c2cccc(-c3cc([C@]4(O)CCN(C)C4=O)on3)c2)nc1C(N)=O [Example 154, (R)-6-(3-(5-(3-Hydroxy-1-methyl-2-oxopyrrolidin-3-yl)isoxazol-3-yl)phenyl)-3-methylpicolinamide] | < 100 | > 501
Cc1ccc(-c2cc([C@]3(O)CCN(C)C3=O)no2)cc1-c1nc2c(N)ncnc2s1 [Example 175, (R)-3-(5-(3-(7-Aminothiazolo[5,4-d]pyrimidin-2-yl)-4-methylphenyl)isoxazol-3-yl)-3-hydroxy-1-methylpyrrolidin-2-one] | < 100 | > 501
CN1CC[C@@](O)(c2cc(-c3cccc(-c4cnc5cnccn45)c3)no2)C1=O [Example 61, (R)-3-Hydroxy-3-(3-(3-(imidazo[1,2-a]pyrazin-3-yl)phenyl)isoxazol-5-yl)-1-methylpyrrolidin-2-one] | 100 to 500 | > 501
CN1CC[C@@](O)(c2cc(-c3cccc(-c4nc(C(N)=O)cc(C(F)(F)F)n4)c3)no2)C1=O [Example 98, (R)-2-(3-(5-(3-Hydroxy-1-methyl-2-oxopyrrolidin-3-yl)isoxazol-3-yl)phenyl)-6-(trifluoromethyl)pyrimidine-4-carboxamide] | < 100 | > 501
COc1cn(C)nc1Nc1cnc(-c2cccc(-c3cc([C@]4(O)CCN(C)C4=O)on3)c2)nc1C(N)=O [Example 144, (R)-2-(3-(5-(3-Hydroxy-1-methyl-2-oxopyrrolidin-3-yl)isoxazol-3-yl)phenyl)-5-((4-methoxy-1-methyl-1H-pyrazol-3-yl)amino)pyrimidine-4-carboxamide] | < 100 | < 100
CN1CC[C@@](O)(c2cc(-c3cccc(-c4nc(C(N)=O)c5ccc(F)cc5n4)c3)no2)C1=O [Example 158, (R)-7-Fluoro-2-(3-(5-(3-hydroxy-1-methyl-2-oxopyrrolidin-3-yl)isoxazol-3-yl)phenyl)quinazoline-4-carboxamide] | < 100 | > 501
CN1CC[C@@](O)(c2cc(-c3cccc(-n4cc(C(N)=O)c(N)n4)n3)no2)C1=O [Example 195, (R)-3-Amino-1-(6-(5-(3-Hydroxy-1-methyl-2-oxopyrrolidin-3-yl)isoxazol-3-yl)pyridin-2-yl)-1H-pyrazole-4-carboxamide] | < 100 | > 501
